TGI and GI50 data for 6 compounds are collected here from PubChem BioAssay (NCI).

Several values for one entry are separate records, joined by “and”; a condition that tells them apart may be missing. Equal values may be shown once.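 Tested at 5 concentrations; 48 h exposure; 96-well plates; endpoints linearly interpolated, else capped at highest concentration. GI50: concentration for 50% inhibition of growth. TGI marks complete inhibition of growth.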

Some test systems named below: BT-549 breast; CAKI-1 renal; COLO 205 colon; DU-145 prostate; LOX IMVI melanoma; NCI-H23 lung; NCI/ADR-RES ovarian; SN12C renal; SW-620 colon; UACC-257 melanoma.
What all share (experiment): NCI anticancer screen, dose series, 48 h

Consider `CC1=C(CO)C(=O)O[C@@H]([C@@H](C)[C@H]2CC[C@H]3[C@@H]4C[C@@H](O)[C@@]5(O)CC=CC(=O)[C@]5(C)[C@H]4CC[C@]23C)C1`, for which the TGI is 93800 nM with BT-549 breast; above 100000 nM in the assay on CAKI-1 renal; above 100000 nM with COLO 205 colon; above 100000 nM with DU-145 prostate; above 100000 nM in the assay on LOX IMVI melanoma; 49400 nM with NCI-H23 lung. Moreover, the TGI is 64200 nM with NCI/ADR-RES ovarian, above 100000 nM with SN12C renal, 47400 nM in the assay on SW-620 colon and above 100000 nM in the assay on UACC-257 melanoma.
`C=C1C(=O)OC2/C=C(/C)C(OC(C)=O)CC(O)/C(C)=C\C(OC(=O)/C(C)=C\C)C12` (configuration not stated): the TGI in the assay on BT-549 breast is above 100000 nM; in the assay with CAKI-1 renal, 86400 nM; in the assay on COLO 205 colon it was above 100000 nM; in the assay on DU-145 prostate, above 100000 nM; with LOX IMVI melanoma, above 100000 nM; in the assay with NCI-H23 lung, above 100000 nM. The TGI in the assay with NCI/ADR-RES ovarian is above 100000 nM; in the assay on SN12C renal, above 100000 nM; with SW-620 colon it was 67600 nM; with UACC-257 melanoma, above 100000 nM.
As for `CCOc1cc2ncc(C#N)c(Nc3ccc(OCc4ccccn4)c(Cl)c3)c2cc1NC(=O)/C=C/CN(C)C`, the GI50 is 1970 nM and 921 nM in the assay with BT-549 breast; 56.4 nM and 146 nM with CAKI-1 renal; 1040 nM and 598 nM in the assay on COLO 205 colon; 113 nM and 181 nM in the assay on DU-145 prostate; 724 nM and 820 nM in the assay with LOX IMVI melanoma; 2630 nM and > 4560 nM with NCI-H23 lung. The GI50 is 1170 nM and 1200 nM with NCI/ADR-RES ovarian; 274 nM and 236 nM in the assay on SN12C renal; 638 nM and 530 nM in the assay on SW-620 colon; 1410 nM and > 4550 nM in the assay with UACC-257 melanoma. Moreover, the TGI in the assay on BT-549 breast was 22000 nM and > 7850 nM; in the assay on CAKI-1 renal it was 12500 nM and > 9090 nM; with COLO 205 colon, 24700 nM and > 5210 nM; in the assay with DU-145 prostate, 1930 nM and 4730 nM; in the assay with LOX IMVI melanoma it was 2290 nM and > 5730 nM; in the assay with NCI-H23 lung, 22200 nM and > 10000 nM. Moreover, the TGI with NCI/ADR-RES ovarian is 4490 nM and > 8870 nM; in the assay with SN12C renal, 4600 nM and > 10000 nM; in the assay on SW-620 colon, 2410 nM and 3020 nM; with UACC-257 melanoma it was 4270 nM and > 10000 nM.
`CC1(C)[C@@H](OC(N)=O)[C@H]2O[C@H]2[C@]2(CO)[C@H]3CC[C@]4(C)[C@@H](c5ccc(=O)oc5)[C@@H](Cl)C[C@]4(O)C3=CC[C@@H]12`: the GI50 was 6.95 nM in the assay on BT-549 breast; 5.21 nM with CAKI-1 renal; 10.9 nM in the assay with COLO 205 colon; 5.09 nM in the assay with DU-145 prostate; 5.95 nM with LOX IMVI melanoma; 5.52 nM with NCI-H23 lung. Besides, the GI50 was 6.72 nM in the assay on NCI/ADR-RES ovarian, 7.66 nM with SN12C renal, 8.35 nM with SW-620 colon and 12 nM with UACC-257 melanoma. Also, the TGI worked out at 25.7 nM in the assay with BT-549 breast; 13.2 nM in the assay on CAKI-1 renal; 50.6 nM in the assay with COLO 205 colon; 10.6 nM in the assay with DU-145 prostate; 15.7 nM in the assay on LOX IMVI melanoma; 15.2 nM with NCI-H23 lung. In addition, the TGI in the assay with NCI/ADR-RES ovarian was 17.4 nM; in the assay on SN12C renal, 32.5 nM; with SW-620 colon it was 27.9 nM; with UACC-257 melanoma it was 45 nM.
On to `Nc1nc(Nc2ccc(C3CCC(N4CCOCC4)CC3)cc2)nn1-c1ccccn1` (configuration not stated), for which the GI50 in the assay on BT-549 breast is 2520 nM; in the assay with CAKI-1 renal it was 2440 nM; in the assay on COLO 205 colon, 5170 nM; in the assay with DU-145 prostate it was 6400 nM; with LOX IMVI melanoma it was 3240 nM; with NCI-H23 lung, 2610 nM. For the same compound, the GI50 in the assay on NCI/ADR-RES ovarian is 9330 nM; with SN12C renal it was 2400 nM; in the assay with SW-620 colon it was 3400 nM; in the assay with UACC-257 melanoma, 3430 nM. For the same compound, the TGI in the assay on BT-549 breast was 6540 nM; with CAKI-1 renal, above 52200 nM; with COLO 205 colon it was above 100000 nM; in the assay on DU-145 prostate, above 100000 nM; in the assay on LOX IMVI melanoma, 9370 nM; in the assay with NCI-H23 lung it was 47700 nM. For the same compound, the TGI in the assay on NCI/ADR-RES ovarian is above 100000 nM; in the assay on SN12C renal, above 100000 nM; with SW-620 colon, above 100000 nM; in the assay on UACC-257 melanoma, 12200 nM.
For the compound `NC(=S)N/N=C/c1ncccc1N`, the GI50 in the assay with BT-549 breast was 2960 nM; in the assay on CAKI-1 renal it was 357 nM; with COLO 205 colon it was 2540 nM; in the assay on DU-145 prostate, 1040 nM; in the assay with LOX IMVI melanoma, 439 nM; in the assay with NCI/ADR-RES ovarian, 1660 nM. The GI50 is 789 nM in the assay with SN12C renal and 1450 nM in the assay with SW-620 colon. In addition, the TGI in the assay on BT-549 breast is above 100000 nM; in the assay with CAKI-1 renal, above 38500 nM; with COLO 205 colon it was 12100 nM and > 10000 nM; in the assay on LOX IMVI melanoma it was 8250 nM and > 10000 nM; with NCI-H23 lung, 6830 nM and > 3070 nM; in the assay on NCI/ADR-RES ovarian, 14900 nM and 8770 nM. Further, the TGI was 16500 nM and > 10000 nM in the assay with SN12C renal; above 48400 nM with SW-620 colon; above 80700 nM in the assay with UACC-257 melanoma.
